The subject of this data set is CCRIS mutagenicity, Ames/micronucleus/aberration tests. As to the kind of experiment: CCRIS mutagenicity studies.
[1] abbreviates: Test System: AMES SALMONELLA TYPHIMURIUM, Strain/Indicator: TA98, Metabolic Activation: NONE, Method: PREINCUBATION
The mark [2] stands for this setting: Test System: AMES SALMONELLA TYPHIMURIUM, Strain/Indicator: TA100, Metabolic Activation: NONE, Method: PREINCUBATION
The mark [3] stands for this setting: Test System: AMES SALMONELLA TYPHIMURIUM, Strain/Indicator: TA102, Metabolic Activation: NONE, Method: PREINCUBATION
Setting [4] is: Test System: AMES SALMONELLA TYPHIMURIUM, Strain/Indicator: TA1535, Metabolic Activation: NONE, Method: PREINCUBATION
The mark [5] stands for this setting: Test System: AMES SALMONELLA TYPHIMURIUM, Strain/Indicator: TA1537, Metabolic Activation: NONE, Method: PREINCUBATION

The structures appear in SMILES notation. Activity calls are given as the source filed them. No rule for the calls is given here.

For the compound `CCCCCCCCO`, the mutagenic call was “inactive; negative” under setting [1]; “inactive; negative” (Test System: AMES SALMONELLA TYPHIMURIUM, Strain/Indicator: TA98, Metabolic Activation: RAT, LIVER, S-9, PHENOBARBITAL AND BETA-NAPHTHOFLAVONE, Method: PREINCUBATION); “inactive; negative” under setting [2]; “inactive; negative” (Test System: AMES SALMONELLA TYPHIMURIUM, Strain/Indicator: TA100, Metabolic Activation: RAT, LIVER, S-9, PHENOBARBITAL AND BETA-NAPHTHOFLAVONE, Method: PREINCUBATION); “inactive; negative” (Test System: AMES SALMONELLA TYPHIMURIUM, Strain/Indicator: TA100, Metabolic Activation: RAT, LIVER, S-9, SODIUM PHENOBARBITAL AND 5,6-BENZOFLAVONE, Method: PREINCUBATION); “inactive; negative” under setting [3]. The mutagenic call (Test System: AMES SALMONELLA TYPHIMURIUM, Strain/Indicator: TA102, Metabolic Activation: RAT, LIVER, S-9, PHENOBARBITAL AND BETA-NAPHTHOFLAVONE, Method: PREINCUBATION) is “inactive; negative”; the mutagenic call (Test System: AMES SALMONELLA TYPHIMURIUM, Strain/Indicator: TA102, Metabolic Activation: RAT, LIVER, S-9, SODIUM PHENOBARBITAL AND 5,6-BENZOFLAVONE, Method: PREINCUBATION) is “inactive; negative”; the mutagenic call (Test System: AMES SALMONELLA TYPHIMURIUM, Strain/Indicator: TA104, Metabolic Activation: NONE, Method: PREINCUBATION) was “inactive; negative”; the mutagenic call (Test System: AMES SALMONELLA TYPHIMURIUM, Strain/Indicator: TA104, Metabolic Activation: RAT, LIVER, S-9, PHENOBARBITAL AND BETA-NAPHTHOFLAVONE, Method: PREINCUBATION) is “inactive; negative”; the mutagenic call (Test System: AMES SALMONELLA TYPHIMURIUM, Strain/Indicator: TA104, Metabolic Activation: RAT, LIVER, S-9, SODIUM PHENOBARBITAL AND 5,6-BENZOFLAVONE, Method: PREINCUBATION) was “inactive; negative”; the mutagenic call under setting [4] was “inactive; negative”. Also, the mutagenic call (Test System: AMES SALMONELLA TYPHIMURIUM, Strain/Indicator: TA1535, Metabolic Activation: RAT, LIVER, S-9, PHENOBARBITAL AND BETA-NAPHTHOFLAVONE, Method: PREINCUBATION) is “inactive; negative”; the mutagenic call under setting [5] was “inactive; negative”; the mutagenic call (Test System: AMES SALMONELLA TYPHIMURIUM, Strain/Indicator: TA1537, Metabolic Activation: RAT, LIVER, S-9, PHENOBARBITAL AND BETA-NAPHTHOFLAVONE, Method: PREINCUBATION) was “inactive; negative”; the mutagenic call (Test System: E. COLI, Strain/Indicator: WP2UVRA/PKM101, Metabolic Activation: NONE, Method: PREINCUBATION) is “inactive; negative”; the mutagenic call (Test System: E. COLI, Strain/Indicator: WP2UVRA/PKM101, Metabolic Activation: RAT, LIVER, S-9, PHENOBARBITAL AND BETA-NAPHTHOFLAVONE, Method: PREINCUBATION) is “inactive; negative”; the mutagenic call (Test System: E. COLI, Strain/Indicator: WP2UVRA/PKM101, Metabolic Activation: RAT, LIVER, S-9, SODIUM PHENOBARBITAL AND 5,6-BENZOFLAVONE, Method: PREINCUBATION) was “inactive; negative”. Besides, the mutagenic call is, setting by setting: (Test System: E. COLI, Strain/Indicator: WP2UVRA, Metabolic Activation: NONE, Method: PREINCUBATION) “inactive; negative”; (Test System: E. COLI, Strain/Indicator: WP2UVRA, Metabolic Activation: RAT, LIVER, S-9, PHENOBARBITAL AND BETA-NAPHTHOFLAVONE, Method: PREINCUBATION) “inactive; negative”.
Turning to `C1=C/CCC2OC2CC/C=C/CC/1` (stereo not given), the mutagenic call reads like this: (Test System: AMES SALMONELLA TYPHIMURIUM, Strain/Indicator: TA100, Metabolic Activation: NONE, Method: STANDARD PLATE) “inactive; negative”; (Test System: AMES SALMONELLA TYPHIMURIUM, Strain/Indicator: TA100, Metabolic Activation: RAT, LIVER, S-9, AROCLOR 1254, Method: STANDARD PLATE) “inactive; negative”; (Test System: AMES SALMONELLA TYPHIMURIUM, Strain/Indicator: TA1535, Metabolic Activation: NONE, Method: STANDARD PLATE) “inactive; negative”; (Test System: AMES SALMONELLA TYPHIMURIUM, Strain/Indicator: TA1535, Metabolic Activation: RAT, LIVER, S-9, AROCLOR 1254, Method: STANDARD PLATE) “inactive; negative”.
For `Cc1cccc2cccnc12`, the mutagenic call by setting is: (Test System: AMES SALMONELLA TYPHIMURIUM, Strain/Indicator: TA98, Metabolic Activation: HAMSTER, LIVER, S-9, AROCLOR 1254 (30%), Method: PREINCUBATION) “active; positive”; under setting [1], “inactive; negative”; (Test System: AMES SALMONELLA TYPHIMURIUM, Strain/Indicator: TA98, Metabolic Activation: RAT, LIVER, S-9, AROCLOR 1254 (30%), Method: PREINCUBATION) “inactive; negative”; (Test System: AMES SALMONELLA TYPHIMURIUM, Strain/Indicator: TA100, Metabolic Activation: HAMSTER, LIVER, S-9, AROCLOR 1254 (30%), Method: PREINCUBATION) “active; positive”; under setting [2], “inactive; negative”; (Test System: AMES SALMONELLA TYPHIMURIUM, Strain/Indicator: TA100, Metabolic Activation: RAT, LIVER, S-9, AROCLOR 1254 (30%), Method: PREINCUBATION) “inactive; negative”. Besides, the mutagenic call is, setting by setting: (Test System: AMES SALMONELLA TYPHIMURIUM, Strain/Indicator: TA100, Metabolic Activation: S-9, Method: PREINCUBATION) “inactive; negative”; (Test System: UDS RODENT HEPATOCYTES, Strain/Indicator: THY INCORP (NON-S-PHASE), Metabolic Activation: NONE, Method: AUTORADIOGRAPHY) “active; positive”.
For the compound `COc1ccc2cc1Oc1ccc(cc1)C[C@H]1c3c(cc4c(c3Oc3cc5c(cc3OC)CCN(C)[C@@H]5C2)OCO4)CCN1C`, the mutagenic call was “inactive; negative” under setting [1]; “active; positive” (Test System: AMES SALMONELLA TYPHIMURIUM, Strain/Indicator: TA98, Metabolic Activation: RAT LIVER S-9, PHENOBARBITAL, 5,6-BENZOFLAVONE, Method: PREINCUBATION); “inactive; negative” under setting [2]; “active; positive” (Test System: AMES SALMONELLA TYPHIMURIUM, Strain/Indicator: TA100, Metabolic Activation: RAT LIVER S-9, PHENOBARBITAL, 5,6-BENZOFLAVONE, Method: PREINCUBATION); “inactive; negative” under setting [4]; “active; positive” (Test System: AMES SALMONELLA TYPHIMURIUM, Strain/Indicator: TA1535, Metabolic Activation: RAT LIVER S-9, PHENOBARBITAL, 5,6-BENZOFLAVONE, Method: PREINCUBATION). In addition, the mutagenic call runs as follows: under setting [5], “inactive; negative”; (Test System: AMES SALMONELLA TYPHIMURIUM, Strain/Indicator: TA1537, Metabolic Activation: RAT LIVER S-9, PHENOBARBITAL, 5,6-BENZOFLAVONE, Method: PREINCUBATION) “active; positive”; (Test System: ESCHERICHIA COLI, Strain/Indicator: WP2 UVR A, Metabolic Activation: NONE, Method: PREINCUBATION) “inactive; negative”; (Test System: ESCHERICHIA COLI, Strain/Indicator: WP2 UVR A, Metabolic Activation: RAT LIVER S-9, PHENOBARBITAL, 5,6-BENZOFLAVONE, Method: PREINCUBATION) “inactive; negative”; (Test System: UDS RAT HEPATOCYTES, Strain/Indicator: THYMIDINE INCORPORATION, Metabolic Activation: NONE, Method: AUTORADIOGRAPHY) “active; positive”.
Regarding `O=c1oc2cccc3ccc4cccc1c4c32`, the mutagenic call by setting is: under setting [1], “inactive; negative”; (Test System: AMES SALMONELLA TYPHIMURIUM, Strain/Indicator: TA98, Metabolic Activation: RAT, LIVER, S-9, AROCLOR 1254, Method: PREINCUBATION) “inactive; negative”; under setting [2], “inactive; negative”; (Test System: AMES SALMONELLA TYPHIMURIUM, Strain/Indicator: TA100, Metabolic Activation: RAT, LIVER, S-9, AROCLOR 1254, Method: PREINCUBATION) “inactive; negative”.
Turning to `c1ccc([Se][Se]c2ccccc2)cc1`, the mutagenic call reads like this: (Test System: AMES SALMONELLA TYPHIMURIUM, Strain/Indicator: TA97A, Metabolic Activation: NONE, Method: PREINCUBATION) “active; positive”; under setting [3], “inactive; negative”.
For `COc1cc2nc3cc(N)ccc3nc2cc1N`, the mutagenic call (Test System: AMES SALMONELLA TYPHIMURIUM, Strain/Indicator: TA98, Metabolic Activation: S-9, Method: SUSPENSION/PLATE) is “active; positive”.

These data come from PubChem BioAssay AID1259407 (Chemical Carcinogenesis Research Information System (CCRIS), 2018).
